Experimental data as given in publication PMC5218480 (PLoS ONE, 2017).

Test system: MV-4-11 cells
Assay: Gene expression microarray analysis (Affymetrix PrimeView) and GSEA
Type: cell-based, human
Parameters: RFU PODN (11730768_x_at) / Fold change /veh PODN (11730768_x_at) / RFU LINC00158 (11744669_a_at) / Fold change /veh LINC00158 (11744669_a_at) / RFU DUSP10 (11751237_a_at) / Fold change /veh DUSP10 (11751237_a_at) / RFU ID3 (11757404_x_at) / Fold change /veh ID3 (11757404_x_at) / RFU PLEKHG5 (11737974_s_at) / Fold change /veh PLEKHG5 (11737974_s_at) / RFU LRRC4B (11730491_at) / Fold change /veh LRRC4B (11730491_at) / RFU GIMAP4 (11747438_a_at) / Fold change /veh GIMAP4 (11747438_a_at) / RFU KRT8 (11758183_x_at) / Fold change /veh KRT8 (11758183_x_at) / RFU CNN1 (11734310_a_at) / Fold change /veh CNN1 (11734310_a_at) / RFU VPS37D (11726825_at) / Fold change /veh VPS37D (11726825_at) / RFU C10orf10 (11716522_x_at) / Fold change /veh C10orf10 (11716522_x_at) / RFU KIR2DL2 /// KIR2DL4 /// KIR2DL5A /// KIR2DL5B /// KIR2DS1 /// KIR2DS2 /// KIR2DS3 /// KIR2DS4 /// KIR3DL3 /// KIR3DL3 /// KIR3DS1 (11738374_at) / Fold change /veh KIR2DL2 /// KIR2DL4 /// KIR2DL5A /// KIR2DL5B /// KIR2DS1 /// KIR2DS2 /// KIR2DS3 /// KIR2DS4 /// KIR3DL3 /// KIR3DL3 /// KIR3DS1 (11738374_at) / RFU C1QL1 (11718748_at) / Fold change /veh C1QL1 (11718748_at) / RFU TMPRSS4 (11747572_a_at) / Fold change /veh TMPRSS4 (11747572_a_at) / RFU HAMP (11756126_x_at) / Fold change /veh HAMP (11756126_x_at) / RFU RNFT2 (11725882_a_at) / Fold change /veh RNFT2 (11725882_a_at) / RFU NR4A2 (11747474_a_at) / Fold change /veh NR4A2 (11747474_a_at) / RFU ABCC12 (11746883_a_at) / Fold change /veh ABCC12 (11746883_a_at) / RFU TMEM136 (11760407_x_at) / Fold change /veh TMEM136 (11760407_x_at) / RFU CLDN22 /// WWC2 (11732394_at) / Fold change /veh CLDN22 /// WWC2 (11732394_at) / RFU HLA-DPB1 (11760878_x_at) / Fold change /veh HLA-DPB1 (11760878_x_at) / RFU SPINT1 (11716480_a_at) / Fold change /veh SPINT1 (11716480_a_at) / RFU GAP43 (11754022_s_at) / Fold change /veh GAP43 (11754022_s_at) / RFU A4GNT (11735810_at) / Fold change /veh A4GNT (11735810_at) / RFU PRB3 (11715151_x_at) / Fold change /veh PRB3 (11715151_x_at) / RFU TUBB4B (11761932_at) / Fold change /veh TUBB4B (11761932_at) / RFU CAPN14 (11732068_a_at) / Fold change /veh CAPN14 (11732068_a_at) / RFU TMCC2 (11721928_a_at) / Fold change /veh TMCC2 (11721928_a_at) / RFU IRGQ (11745062_a_at) / Fold change /veh IRGQ (11745062_a_at) / RFU FAM174B (11720279_a_at) / Fold change /veh FAM174B (11720279_a_at) / RFU TMPRSS4 (11748680_a_at) / Fold change /veh TMPRSS4 (11748680_a_at) / RFU FAM212B (11763350_a_at) / Fold change /veh FAM212B (11763350_a_at) / RFU PLEKHG5 (11743358_a_at) / Fold change /veh PLEKHG5 (11743358_a_at) / RFU ZSCAN30 (11745921_a_at) / Fold change /veh ZSCAN30 (11745921_a_at) / RFU CMKLR1 (11741424_a_at) / Fold change /veh CMKLR1 (11741424_a_at) / RFU LOC101060620 /// MAPK8IP1 (11723275_at) / Fold change /veh LOC101060620 /// MAPK8IP1 (11723275_at) / RFU SPTSSB (11747773_x_at) / Fold change /veh SPTSSB (11747773_x_at) / RFU PRSS12 (11739890_at) / Fold change /veh PRSS12 (11739890_at) / RFU BIN1 (11741810_x_at) / Fold change /veh BIN1 (11741810_x_at) / RFU WNT11 (11732464_a_at) / Fold change /veh WNT11 (11732464_a_at) / RFU C10orf10 (11716521_a_at) / Fold change /veh C10orf10 (11716521_a_at) / RFU C5orf56 (11738089_at) / Fold change /veh C5orf56 (11738089_at) / RFU CYB561 (11721691_x_at) / Fold change /veh CYB561 (11721691_x_at) / RFU ANKRD19P (11752326_a_at) / Fold change /veh ANKRD19P (11752326_a_at) / RFU OR2T12 /// OR2T33 /// OR2T8 (11738714_s_at) / Fold change /veh OR2T12 /// OR2T33 /// OR2T8 (11738714_s_at) / RFU VCAN (11748164_a_at) / Fold change /veh VCAN (11748164_a_at) / RFU JSRP1 (11732532_at) / Fold change /veh JSRP1 (11732532_at) / RFU KRTAP10-11 (11738290_x_at) / Fold change /veh KRTAP10-11 (11738290_x_at) / RFU MYO3A (11730013_a_at) / Fold change /veh MYO3A (11730013_a_at) / RFU EBF3 (11725865_a_at) / Fold change /veh EBF3 (11725865_a_at) / RFU CAMK2N1 (11719241_x_at) / Fold change /veh CAMK2N1 (11719241_x_at) / RFU C5orf56 (11738088_a_at) / Fold change /veh C5orf56 (11738088_a_at) / RFU OLFML3 (11715873_a_at) / Fold change /veh OLFML3 (11715873_a_at) / RFU LOC100653217 /// NTM (11731650_a_at) / Fold change /veh LOC100653217 /// NTM (11731650_a_at) / RFU MAPK11 (11762145_a_at) / Fold change /veh MAPK11 (11762145_a_at) / RFU FIZ1 (11724087_x_at) / Fold change /veh FIZ1 (11724087_x_at) / RFU OASL (11726364_x_at) / Fold change /veh OASL (11726364_x_at) / RFU SOX15 (11748057_x_at) / Fold change /veh SOX15 (11748057_x_at) / RFU CD79A (11719716_a_at) / Fold change /veh CD79A (11719716_a_at) / RFU HIST1H1D (11736915_at) / Fold change /veh HIST1H1D (11736915_at) / RFU CASKIN2 (11723855_a_at) / Fold change /veh CASKIN2 (11723855_a_at) / RFU LOC730098 (11760151_x_at) / Fold change /veh LOC730098 (11760151_x_at) / RFU OR4N2 (11742367_at) / Fold change /veh OR4N2 (11742367_at) / RFU PRRT2 (11749266_a_at) / Fold change /veh PRRT2 (11749266_a_at) / RFU SNX32 (11753110_a_at) / Fold change /veh SNX32 (11753110_a_at) / RFU CDHR5 (11726645_a_at) / Fold change /veh CDHR5 (11726645_a_at) / RFU RCAN1 (11760418_a_at) / Fold change /veh RCAN1 (11760418_a_at) / RFU FAM167A (11723789_a_at) / Fold change /veh FAM167A (11723789_a_at) / RFU FAM26E (11764081_at) / Fold change /veh FAM26E (11764081_at) / RFU ISYNA1 (11749810_s_at) / Fold change /veh ISYNA1 (11749810_s_at) / RFU ACY1 (11761880_at) / Fold change /veh ACY1 (11761880_at) / RFU 11764098_at / Fold change /veh 11764098_at / RFU SAMD14 (11745864_x_at) / Fold change /veh SAMD14 (11745864_x_at) / RFU NPB (11741838_a_at) / Fold change /veh NPB (11741838_a_at) / RFU TMPRSS6 (11731388_a_at) / Fold change /veh TMPRSS6 (11731388_a_at) / RFU KRTAP10-2 (11738614_at) / Fold change /veh KRTAP10-2 (11738614_at) / RFU ARHGAP8 /// PRR5-ARHGAP8 (11727945_x_at) / Fold change /veh ARHGAP8 /// PRR5-ARHGAP8 (11727945_x_at) / RFU KRTAP5-7 /// NADSYN1 (11734609_at) / Fold change /veh KRTAP5-7 /// NADSYN1 (11734609_at) / RFU RASL12 (11751679_a_at) / Fold change /veh RASL12 (11751679_a_at) / RFU CDKN2B (11736163_a_at) / Fold change /veh CDKN2B (11736163_a_at) / RFU PRF1 (11729649_at) / Fold change /veh PRF1 (11729649_at) / RFU, ZNF638 /// ZNF638-IT1 / Fold change vs veh, ZNF638 /// ZNF638-IT1 / RFU, PANK3 / Fold change vs veh, PANK3 / RFU, SH3YL1 / Fold change vs veh, SH3YL1 / RFU, ZEB2 / Fold change vs veh, ZEB2 / RFU, NRIP1 / Fold change vs veh, NRIP1 / RFU, PTTG1IP / Fold change vs veh, PTTG1IP / RFU, CAPN2 / Fold change vs veh, CAPN2 / RFU, MED14 / Fold change vs veh, MED14 / RFU, SNORA58 / Fold change vs veh, SNORA58 / RFU, C1orf63 / Fold change vs veh, C1orf63 / RFU, LRRFIP1 / Fold change vs veh, LRRFIP1 / RFU, NDUFAF7 / Fold change vs veh, NDUFAF7 / RFU, SLC12A2 / Fold change vs veh, SLC12A2 / RFU, IBTK / Fold change vs veh, IBTK / RFU, ESF1 / Fold change vs veh, ESF1 / Fold change vs veh, TMEM50B / RFU, TAOK1 / Fold change vs veh, TAOK1 / RFU, ACBD3 / Fold change vs veh, ACBD3 / RFU, TMA16 / Fold change vs veh, TMA16 / RFU, RWDD3 / Fold change vs veh, RWDD3 / RFU, BCAT1 / Fold change vs veh, BCAT1 / RFU, EDEM3 / Fold change vs veh, EDEM3 / RFU, TMEM33 / Fold change vs veh, TMEM33 / RFU, WDR75 / Fold change vs veh, WDR75 / RFU, AHCTF1 / Fold change vs veh, AHCTF1 / RFU, TFRC / Fold change vs veh, TFRC / RFU, ZDHHC17 / Fold change vs veh, ZDHHC17 / RFU, NOM1 / Fold change vs veh, NOM1 / RFU, ARL8B / Fold change vs veh, ARL8B / RFU, ZBTB11 / Fold change vs veh, ZBTB11 / RFU, TAMM41 / Fold change vs veh, TAMM41 / RFU, KIAA1704 /// LOC100996395 / Fold change vs veh, KIAA1704 /// LOC100996395 / RFU, ING1 / Fold change vs veh, ING1 / RFU, TRMT61B / Fold change vs veh, TRMT61B / RFU, FUBP3 / Fold change vs veh, FUBP3 / RFU, TP53 / Fold change vs veh, TP53 / RFU, TNKS2 / Fold change vs veh, TNKS2 / RFU, ZFP14 / Fold change vs veh, ZFP14 / RFU, ACTR2 / Fold change vs veh, ACTR2 / RFU, PPP3R1 / Fold change vs veh, PPP3R1 / RFU, PIK3R1 / Fold change vs veh, PIK3R1 / RFU, HNRNPA1 / Fold change vs veh, HNRNPA1 / RFU, RNF170 / Fold change vs veh, RNF170 / RFU, ZNF28 / Fold change vs veh, ZNF28 / RFU, RNGTT / Fold change vs veh, RNGTT / RFU, OGT / Fold change vs veh, OGT / RFU, BRD1 / Fold change vs veh, BRD1 / RFU, MARS / Fold change vs veh, MARS / RFU, ZNF655 / Fold change vs veh, ZNF655 / RFU, FAHD1 / Fold change vs veh, FAHD1 / RFU, BDP1 / Fold change vs veh, BDP1 / RFU, LRRCC1 / Fold change vs veh, LRRCC1 / RFU, ARID1A / Fold change vs veh, ARID1A / RFU, ZNF146 / Fold change vs veh, ZNF146 / RFU, ZNF330 / Fold change vs veh, ZNF330 / RFU, GPN3 / Fold change vs veh, GPN3 / RFU, C9orf123 / Fold change vs veh, C9orf123 / RFU, N4BP2L2 / Fold change vs veh, N4BP2L2 / RFU, ARFIP1 / Fold change vs veh, ARFIP1 / RFU, FAM179B / Fold change vs veh, FAM179B / RFU, BCL10 / Fold change vs veh, BCL10 / RFU, UHRF1BP1L / Fold change vs veh, UHRF1BP1L / RFU, BET1 / Fold change vs veh, BET1 / RFU, CNOT2 / Fold change vs veh, CNOT2 / RFU, ZNF268 / Fold change vs veh, ZNF268 / Fold change vs veh, ZNF507 / RFU, DGCR2 / Fold change vs veh, DGCR2 / RFU, WDSUB1 / Fold change vs veh, WDSUB1 / Fold change vs veh, HSP90B1 /// MIR3652 / RFU, ADSS / Fold change vs veh, ADSS / RFU, GK / Fold change vs veh, GK / RFU, ZNF148 / Fold change vs veh, ZNF148 / RFU, TAF9 / Fold change vs veh, TAF9 / RFU, SLC1A5 / Fold change vs veh, SLC1A5 / RFU, SLMO2 / Fold change vs veh, SLMO2 / RFU, ABCC4 / Fold change vs veh, ABCC4 / RFU, LOC101060439 /// RAP1B / Fold change vs veh, LOC101060439 /// RAP1B / RFU, RFX7 / Fold change vs veh, RFX7 / RFU, GTPBP10 / Fold change vs veh, GTPBP10 / RFU, CNEP1R1 / Fold change vs veh, CNEP1R1 / RFU, BIVM-ERCC5 /// ERCC5 / Fold change vs veh, BIVM-ERCC5 /// ERCC5 / RFU, ILF3 / Fold change vs veh, ILF3 / RFU 11762660_at / Fold change /veh 11762660_at / RFU VCAN (11757783_s_at) / Fold change /veh VCAN (11757783_s_at) / RFU DDX43 (11728927_at) / Fold change /veh DDX43 (11728927_at) / RFU KRT8 (11758188_x_at) / Fold change /veh KRT8 (11758188_x_at) / RFU NKD1 (11759106_at) / Fold change /veh NKD1 (11759106_at) / RFU SRD5A1 (11742802_a_at) / Fold change /veh SRD5A1 (11742802_a_at) / RFU TPSAB1 /// TPSB2 (11721975_s_at) / Fold change /veh TPSAB1 /// TPSB2 (11721975_s_at) / RFU GSTM3 (11746129_a_at) / Fold change /veh GSTM3 (11746129_a_at) / RFU IL23R (11737362_x_at) / Fold change /veh IL23R (11737362_x_at) / RFU TMEM51 (11727254_a_at) / Fold change /veh TMEM51 (11727254_a_at) / RFU PIWIL2 (11732686_x_at) / Fold change /veh PIWIL2 (11732686_x_at) / RFU ORM1 (11744905_x_at) / Fold change /veh ORM1 (11744905_x_at) / RFU CCDC152 (11743942_at) / Fold change /veh CCDC152 (11743942_at) / RFU ECM1 (11717891_a_at) / Fold change /veh ECM1 (11717891_a_at) / RFU IL23R (11748794_a_at) / Fold change /veh IL23R (11748794_a_at) / RFU TNFAIP8L3 (11732012_x_at) / Fold change /veh TNFAIP8L3 (11732012_x_at) / RFU MBOAT4 (11741988_at) / Fold change /veh MBOAT4 (11741988_at) / RFU 11764193_at / Fold change /veh 11764193_at / RFU TMEM53 (11763286_at) / Fold change /veh TMEM53 (11763286_at) / RFU MAGEB2 (11727129_at) / Fold change /veh MAGEB2 (11727129_at) / RFU TMEM200A (11744735_a_at) / Fold change /veh TMEM200A (11744735_a_at) / RFU CCDC152 (11751479_a_at) / Fold change /veh CCDC152 (11751479_a_at) / RFU FAM211A (11726209_a_at) / Fold change /veh FAM211A (11726209_a_at) / RFU RGS16 (11746705_a_at) / Fold change /veh RGS16 (11746705_a_at) / RFU VCAN (11755009_s_at) / Fold change /veh VCAN (11755009_s_at) / RFU RHOB (11743442_s_at) / Fold change /veh RHOB (11743442_s_at) / RFU RGS16 (11720943_a_at) / Fold change /veh RGS16 (11720943_a_at) / RFU RGS16 (11720944_at) / Fold change /veh RGS16 (11720944_at) / RFU, VPS4B / Fold change vs veh, VPS4B / RFU, CREB1 / Fold change vs veh, CREB1 / RFU, DNAJC13 / Fold change vs veh, DNAJC13 / RFU, GNAQ / Fold change vs veh, GNAQ / RFU, CDK5R1 / Fold change vs veh, CDK5R1 / RFU, ZRANB3 / Fold change vs veh, ZRANB3 / RFU, CUL4A / Fold change vs veh, CUL4A / RFU, CCNY / Fold change vs veh, CCNY / RFU, UFL1 / Fold change vs veh, UFL1 / RFU, COG3 / Fold change vs veh, COG3 / RFU, DIAPH2 / Fold change vs veh, DIAPH2 / RFU, SKA2 / Fold change vs veh, SKA2 / RFU, AFF3 / Fold change vs veh, AFF3 / RFU, LMF1 / Fold change vs veh, LMF1 / RFU, IPO11 / Fold change vs veh, IPO11 / RFU, DFFB / Fold change vs veh, DFFB / RFU, FOXP1 / Fold change vs veh, FOXP1 / RFU, CARD8 / Fold change vs veh, CARD8 / RFU, STRN3 / Fold change vs veh, STRN3 / RFU, ADK / Fold change vs veh, ADK / RFU, RASSF2 / Fold change vs veh, RASSF2 / RFU, WIPF1 / Fold change vs veh, WIPF1 / RFU, LARP1B / Fold change vs veh, LARP1B / RFU, RASA1 / Fold change vs veh, RASA1 / RFU, RB1 / Fold change vs veh, RB1 / RFU, PPFIA1 / Fold change vs veh, PPFIA1 / RFU, MAT2A / Fold change vs veh, MAT2A / RFU, CCT5 / Fold change vs veh, CCT5 / RFU, WDR92 / Fold change vs veh, WDR92 / RFU, CUX1 / Fold change vs veh, CUX1 / RFU, TTC7A / Fold change vs veh, TTC7A / RFU, TMEM135 / Fold change vs veh, TMEM135 / RFU, DEPTOR / Fold change vs veh, DEPTOR / RFU, CPM / Fold change vs veh, CPM / RFU, DNAJB6 / Fold change vs veh, DNAJB6 / RFU, CACNA2D3 / Fold change vs veh, CACNA2D3 / RFU, DTX4 / Fold change vs veh, DTX4 / RFU, TFCP2 / Fold change vs veh, TFCP2 / RFU, GMCL1 /// GMCL1P1 / Fold change vs veh, GMCL1 /// GMCL1P1 / RFU, AEBP2 / Fold change vs veh, AEBP2 / RFU, SNHG1 /// SNORD22 /// SNORD25 /// SNORD26 /// SNORD27 /// SNORD28 /// SNORD29 /// SNORD31 / Fold change vs veh, SNHG1 /// SNORD22 /// SNORD25 /// SNORD26 /// SNORD27 /// SNORD28 /// SNORD29 /// SNORD31 / Fold change (Aza/veh), C12orf56 (ProbeSet 11735607_a_at) / Fold change (ACY-1035/veh), C12orf56 (ProbeSet 11735607_a_at) / Fold change (Aza/veh), FGFR1OP (ProbeSet 11751329_s_at) / Fold change (ACY-1035/veh), FGFR1OP (ProbeSet 11751329_s_at) / Fold change (Aza/veh), VPS36 (ProbeSet 11739960_a_at) / Fold change (ACY-1035/veh), VPS36 (ProbeSet 11739960_a_at) / RFU SYPL1 (11715823_x_at) / Fold change /veh SYPL1 (11715823_x_at) / RFU IGFBP7 (11715501_s_at) / Fold change /veh IGFBP7 (11715501_s_at) / RFU REEP3 (11722064_at) / Fold change /veh REEP3 (11722064_at) / RFU IGLL1 (11728026_x_at) / Fold change /veh IGLL1 (11728026_x_at): dose or concentration left out as unconfirmed
Settings: ProbeSet 11758919_x_at; LIST D

Nc1ncn([C@@H]2O[C@H](CO)[C@@H](O)[C@H]2O)c(=O)n1 [azacitidine]
RFU, TFCP2: 66.08 RFU
